In ChEMBL document CHEMBL3885861, “Open TG-GATES”:

Species on record: Rattus norvegicus
Assay: Open TG-GATES - Regimen: Single
Assay type: toxicity, organism-based, Sprague-Dawley
Design: regimen Single, gender Male, age 6 weeks
Settings: in vivo, po, 15 mg/kg, route gavage; for TC / TP / gamma-GTP / ALP / ALT / AST / BUN / CRE / Ca / Cl / DBIL / GLC / IP / K / LDH / Na / PL / RALB / TBIL: tissue Plasma; for APTT / Bas / Eos / Fbg / Hb / Ht / Lym / MCH / MCHC / MCV / Mono / Neu / PT / Plat / RBC / Ret / WBC: tissue Blood; for KIDNEY_L / KIDNEY_R / KIDNEY_TOTAL: tissue Kidney; for LIVER: tissue Liver

## O=P1(N(CCCl)CCCl)NCCCO1 (stereo not given) [CYCLOPHOSPHAMIDE ANHYDROUS]
3 h, dose level Low
  TC: 68.6 mg/dL
  TP: 5.2 g/dL
  gamma-GTP: 1.2 IU/L
6 h, dose level High
  TERMINAL_BW: 193.9 g
  APTT: 21.7 s
  Bas: 0%
  Eos: 0.6%
  Fbg: 313.4 mg/dL
  Hb: 13.3 g/dL
  Ht: 39.9%
  Lym: 79.4%
  MCH: 21.5 pg
  MCHC: 33.3%
  MCV: 64.8 fL
  Mono: 2.2%
  Neu: 17.4%
  PT: 15.6 s
  Plat: 122.7 x10_4/uL
  RBC: 616.8 x10_4/ul
  Ret: 9%
  WBC: 68.2 x10_2/uL
  KIDNEY_L: 0.8 g
  KIDNEY_R: 0.9 g
  KIDNEY_TOTAL: 1.7 g
  LIVER: 8.4 g
  ALP: 1569.4 IU/L
  ALT: 39.2 IU/L
  AST: 74.8 IU/L
  BUN: 10.2 mg/dL
  CRE: 0.1 mg/dL
  Ca: 10.7 mg/dL
  Cl: 106.8 meq/L
  DBIL: 0 mg/dL
  GLC: 185.8 mg/dL
  IP: 10.4 mg/dL
  K: 4.5 meq/L
  LDH: 216.8 IU/L
  Na: 143.2 meq/L
  PL: 144 mg/dL
  RALB: 2.9 g/dL
  TBIL: 0.032 mg/dL
  TC: 81.8 mg/dL
  TP: 5.4 g/dL
  gamma-GTP: 1.2 IU/L
6 h, dose level Low
  TERMINAL_BW: 190.6 g
  APTT: 20.3 s
  Eos: 1.2%
  Fbg: 302 mg/dL
  Hb: 13 g/dL
  Ht: 38.9%
  Lym: 80.6%
  MCH: 20.9 pg
  MCHC: 33.4%
  MCV: 62.4 fL
  Mono: 2.4%
  Neu: 15.8%
  PT: 13.9 s
  Plat: 115.7 x10_4/uL
  RBC: 624 x10_4/ul
  Ret: 8.9%
  WBC: 71.4 x10_2/uL
  KIDNEY_R: 0.8 g
  LIVER: 7.6 g
  ALP: 1365.4 IU/L
  ALT: 33.2 IU/L
  AST: 70.4 IU/L
  BUN: 8.4 mg/dL
  CRE: 0.2 mg/dL
  Ca: 10.9 mg/dL
  Cl: 107 meq/L
  DBIL: 0.014 mg/dL
  GLC: 168.2 mg/dL
  IP: 9 mg/dL
  K: 4.3 meq/L
  LDH: 83.8 IU/L
  Na: 142 meq/L
  PL: 141.6 mg/dL
  RALB: 2.5 g/dL
  TBIL: 0.072 mg/dL
  TC: 79 mg/dL
  TP: 5.3 g/dL
9 h, dose level High
  TERMINAL_BW: 185.5 g
  APTT: 20.7 s
  Bas: 0%
  Eos: 0.8%
  Fbg: 320.4 mg/dL
  Hb: 13.2 g/dL
  Ht: 39.3%
  Lym: 78%
  MCH: 21 pg
  MCHC: 33.6%
  MCV: 62.4 fL
  Mono: 2.2%
  Neu: 19%
  PT: 16.2 s
  Plat: 113.9 x10_4/uL
  RBC: 631 x10_4/ul
  Ret: 7.3%
  WBC: 57.8 x10_2/uL
  KIDNEY_L: 0.8 g
  KIDNEY_R: 0.9 g
  KIDNEY_TOTAL: 1.7 g
  LIVER: 7.5 g
  ALP: 1487.4 IU/L
  ALT: 34.8 IU/L
  AST: 67.4 IU/L
  BUN: 9.2 mg/dL
  CRE: 0.2 mg/dL
  Ca: 10.5 mg/dL
  Cl: 107.4 meq/L
  DBIL: 0.002 mg/dL
  GLC: 186 mg/dL
  IP: 10.1 mg/dL
  K: 3.9 meq/L
  LDH: 185.4 IU/L
  Na: 143.4 meq/L
  PL: 123.8 mg/dL
  RALB: 3 g/dL
  TBIL: 0.032 mg/dL
  TC: 69.2 mg/dL
  TP: 5.4 g/dL
9 h, dose level Low
  TERMINAL_BW: 184.1 g
  APTT: 16.7 s
  Eos: 1%
  Fbg: 285.6 mg/dL
  Hb: 12.7 g/dL
  Ht: 37.6%
  Lym: 75%
  MCH: 20.8 pg
  MCHC: 33.7%
  MCV: 61.8 fL
  Neu: 21.4%
  PT: 14 s
  Plat: 120.4 x10_4/uL
  RBC: 608.4 x10_4/ul
  Ret: 8.8%
  WBC: 67.8 x10_2/uL
  KIDNEY_R: 0.8 g
  KIDNEY_TOTAL: 1.6 g
  LIVER: 6.9 g
